Measurements reported in patent publication US7759373B2, “Large conductance calcium-activated K channel opener” (Mitsubishi Tanabe Pharma Corporation, priority 2001, dated 2010).

What was measured:
[1] = system: isolated rabbit urinary bladder; assay: Relaxation effect on potassium-induced contraction of isolated rabbit urinary bladder; assay type: cell-based; settings: Oryctolagus cuniculus; 50% relaxation concentration; high-K+ (30 mM) pre-contracted rabbit bladder strips; relaxation as percentage of the maximum produced by 0.1 mM papaverine; read-out: EC50 value range
Procedure: Relaxation effect on potassium-induced contraction of isolated rabbit urinary bladder
Urinary bladder was isolated from Male NZW rabbits (2.0-3.5 kg) and immersed in ice-cold Krebs-bicarbonate solution (in mM: 118 NaCl, 4.7 KCl, 1.2, 2.5 CaCl2, MgSO4, 1.2 KH2PO4, 11 glucose, 25 NaHCO3). The urinary bladder was cut into longitudinal strips (5 mm length, 3-4 mm width) after mucosal layer was removed. Preparations were mounted in organ baths containing 10 ml of Krebs solution maintained at 37° C. and gassed with 95% O2/5% CO2. Accordingly, preparations were stretched with an initial tension of 2.0±1.0 g, and changes in isometric tension were measured by force-displacement transducer. The preparations were pre-contracted by changing organ-bath solution into high-K^+ (30 mM) Krebs solution (in mM: 92.7 NaCl, 30 KCl, 1.2, 2.5 CaCl2, MgSO4, 1.2 KH2PO4, 11 glucose, 25 NaHCO3).
After stable tension was obtained, compounds were added into organ baths cumulatively (10^−8M-10^−4M). The effects of compounds were expressed as a percentage of the maximum relaxation produced by 0.1 mM papaverine. 50% relaxation concentration (EC50) was calculated and EC50 value range (μM) of the compounds of the present invention was shown in the following Table 64 with a rank of A, B or C. These ranges are as mentioned below. 3≧C≧1≧B≧0.5≧A

[2] = system: rhythmic bladder contractions induced by substance P; assay: Inhibitory effect on the rhythmic bladder contractions induced by substance P in anesthetized rats; assay type: in vivo, rat; settings: time during which frequency of rhythmic contraction was completely inhibited, 0.25 mg/kg of the compound, substance P infusion
How it was run: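 Urethane-anesthetized female Sprague-Dawley rats with rhythmic bladder contractions driven by i.v. substance P (0.33 μg/kg/min). Compound given i.v. in saline/0.5% Tween 80 once contractions stable 15 min; intravesical pressure monitored, duration of 100% inhibition ranked A ≥20, B ≥10, C <10 min.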

Compound | EC50 [1] [µM] | 100% inhibition time range [2]
CCc1nc(-c2csc(Cl)c2)[nH]c1-c1cccnc1 [Preparation example 55] | 1 to 3 | B (A≧20>B≧10>C (minute))
COc1ccc(-c2nc(CC(=O)O)c(-c3ccc(Cl)s3)s2)cc1 [Preparation Example 609] | 0.5 to 1 | B (A≧20>B≧10>C (minute))
Cc1cc(-c2nc(-c3ccc(Cl)s3)c(CC(=O)O)s2)sc1C [Preparation Example 587] | 0.5 to 1 | A (A≧20>B≧10>C (minute))
CN(C)c1ccc(-c2nc(CC(=O)O)c(-c3ccc(Cl)s3)o2)cc1 [Preparation Example 441] | 1 to 3 | B (A≧20>B≧10>C (minute))
CS(=O)(=O)NCCc1nc(-c2ccc(F)cc2)oc1-c1ccsc1.[Na] [Preparation Example 378, 2-(4-fluoro-phenyl)-4-methanesulfonylaminoethyl-5-(3-thienyl)oxazole sodium salt] | 1 to 3 | C (A≧20>B≧10>C (minute))
O=C(O)Cc1nc(-c2ccc(F)cc2)oc1-c1ccc2occc2c1 [Preparation Example 285] | 1 to 3 | B (A≧20>B≧10>C (minute))
CN(C)c1ccc(-c2nc(-c3ccc(Cl)s3)c(CC(=O)O)o2)cn1 [Preparation Example 504] | 1 to 3 | C (A≧20>B≧10>C (minute))
CCCc1nc(-c2ccc(F)cc2)[nH]c1-c1ccc(N(C)C)cc1 [Preparation example 90] | 1 to 3 | B (A≧20>B≧10>C (minute))
C[S+]([O-])Cc1nc(-c2cccc(F)c2)[nH]c1-c1ccccc1 (centres unmarked) [Preparation example 136] | 0.5 to 1 | C (A≧20>B≧10>C (minute))
CC(C)c1ccc(-c2oc(-c3ccc(F)cc3)nc2CC(=O)O)cc1 [Preparation Example 248] | 1 to 3 | B (A≧20>B≧10>C (minute))
CCc1nc(-c2ccc(F)cc2)[nH]c1-c1ncccn1 [Preparation example 50] | 1 to 3 | C (A≧20>B≧10>C (minute))
CN(C)c1ncc(-c2nc(-c3ccc(Cl)cc3)c(CC(=O)O)s2)cn1 [Preparation Example 601] | 0.5 to 1 | A (A≧20>B≧10>C (minute))
O=C(O)Cc1nc(-c2ccc3occc3c2)oc1-c1cccs1 [Preparation Example 269] | ≤ 0.5 | B (A≧20>B≧10>C (minute))
Cc1ccc(-c2nc(CC(=O)O)c(-c3ccc(Cl)s3)o2)s1 [Preparation Example 458] | ≤ 0.5 | B (A≧20>B≧10>C (minute))
CN(C)c1ccc(-c2nc(-c3ccsc3)c(CC(=O)O)s2)cn1 [Preparation Example 596] | 1 to 3 | B (A≧20>B≧10>C (minute))
CCc1nc(-c2ccc(Cl)cc2)[nH]c1-c1cccnc1 [Preparation example 56] | 0.5 to 1 | B (A≧20>B≧10>C (minute))
CN(C)c1ccc(-c2nc(-c3cccs3)c(CC(=O)O)s2)cn1 [Preparation Example 579] | 0.5 to 1 | C (A≧20>B≧10>C (minute))
O=C(O)Cc1nc(-c2ccc3c(c2)CCO3)oc1-c1ccc(Cl)s1 [Preparation Example 282] | 0.5 to 1 | B (A≧20>B≧10>C (minute))
CNC(=O)Cc1nc(-c2ccc(F)cc2)oc1-c1ccsc1 [Preparation Example 374] | 1 to 3 | C (A≧20>B≧10>C (minute))
O=C(O)Cc1nc(-c2ccc3c(c2)OCCO3)oc1-c1ccc(Cl)s1 [Preparation Example 283] | ≤ 0.5 | C (A≧20>B≧10>C (minute))
CN(C)c1[nH]c(-c2ccc(F)cc2)nc1-c1ccccc1.Cl [Preparation example 108, 5-dimethylamino-2-(4-fluorophenyl)-4-phenylimidazole hydrochloride] | 1 to 3 | B (A≧20>B≧10>C (minute))
O=C(O)Cc1nc(-c2ccc3occc3c2)oc1-c1ccc(Cl)s1 [Preparation Example 272] | ≤ 0.5 | B (A≧20>B≧10>C (minute))
Cc1ccc(-c2nc(CC(=O)O)c(-c3ccccc3)o2)cc1 [Preparation Example 262] | 1 to 3 | C (A≧20>B≧10>C (minute))

Compound | EC50 [1] [µM] | 100% inhibition time range [2]
COc1ccc(-c2nc(CC(=O)O)c(-c3ccccc3F)o2)cc1 [Preparation Example 247] | 1 to 3 | C (A≧20>B≧10>C (minute))
O=C(O)Cc1nc(-c2ccc(F)cc2)oc1-c1cccc(F)c1F [Preparation Example 252] | 0.5 to 1 | C (A≧20>B≧10>C (minute))
COc1ccc(-c2nc(CC(=O)O)c(-c3cccs3)o2)cc1 [Preparation Example 155] | 1 to 3 | B (A≧20>B≧10>C (minute))
CONC(=O)Cc1nc(-c2ccc(F)cc2)oc1-c1ccsc1 [Preparation Example 373, N-methoxy-[2-(4-fluorophenyl)-5-(3-thienyl)oxazol-4-yl]acetamide] | 1 to 3 | C (A≧20>B≧10>C (minute))
O=C(O)Cc1nc(-c2cc3ccc(F)cc3s2)oc1-c1ccc(Cl)s1 [Preparation Example 451] | 1 to 3 | B (A≧20>B≧10>C (minute))
O=C(O)Cc1nc(-c2cnc3occc3c2)oc1-c1ccc(Cl)s1 [Preparation Example 444] | 1 to 3 | B (A≧20>B≧10>C (minute))
O=C(O)Cc1nc(-c2cc3ccccc3s2)oc1-c1ccc(Cl)cc1 [Preparation Example 454] | 1 to 3 | A (A≧20>B≧10>C (minute))
COc1ccc(-c2nc(CC(=O)O)c(-c3cccs3)o2)cc1F [Preparation Example 431] | 0.5 to 1 | B (A≧20>B≧10>C (minute))
O=C(O)/C=C/c1nc(-c2ccc(F)cc2)oc1-c1ccc(Cl)s1 [Preparation Example 626] | 1 to 3 | C (A≧20>B≧10>C (minute))
COCc1ccc(-c2nc(CC(=O)O)c(-c3ccc(Cl)s3)o2)cn1 [Preparation Example 464] | 1 to 3 | C (A≧20>B≧10>C (minute))
CSc1ccc(-c2nc(CC(=O)O)c(-c3ccc(Cl)cc3)o2)cc1 [Preparation Example 455] | 1 to 3 | B (A≧20>B≧10>C (minute))
C[S+]([O-])Cc1nc(-c2ccc(F)cc2)[nH]c1-c1ccsc1 (centres unmarked) [Preparation Example 181] | 0.5 to 1 | B (A≧20>B≧10>C (minute))
O=C(O)Cc1sc(-c2ccc(F)cc2)nc1-c1ccsc1 [Preparation Example 594] | ≤ 0.5 | C (A≧20>B≧10>C (minute))
COc1ccc(-c2nc(-c3ccc(Cl)cc3)c(CC(=O)O)s2)cc1 [Preparation Example 575] | ≤ 0.5 | B (A≧20>B≧10>C (minute))
O=C(O)Cc1sc(-c2ccc(F)cc2)nc1-c1ccc(Cl)c(F)c1 [Preparation Example 584] | 1 to 3 | A (A≧20>B≧10>C (minute))
O=C(O)Cc1nc(-c2ccc(F)cc2)oc1-c1csc2ccccc12 [Preparation Example 158] | 1 to 3 | C (A≧20>B≧10>C (minute))
O=C(O)Cc1nc(-c2ccccc2O)oc1-c1cccs1 [Preparation Example 277] | 0.5 to 1 | C (A≧20>B≧10>C (minute))
CCCc1nc(-c2ccc(F)cc2)[nH]c1-c1ccsc1 [Preparation Example 172] | 1 to 3 | C (A≧20>B≧10>C (minute))
Cc1ccc(-c2nc(CC(=O)O)c(-c3ccc(Cl)s3)o2)cn1 [Preparation Example 452] | ≤ 0.5 | B (A≧20>B≧10>C (minute))
CN(C)c1ncc(-c2nc(CC(=O)O)c(-c3ccc(Cl)c(S)c3)o2)cn1 [Preparation Example 364] | 1 to 3 | B (A≧20>B≧10>C (minute))
CSc1ccc(-c2nc(CC(=O)[O-])c(-c3ccsc3)o2)cn1.[Na+] [Preparation Example 365, 2-(6-methylthiopyridin-3-yl)-5-(3-thienyl)oxazol-4-yl acetic acid sodium salt] | 1 to 3 | B (A≧20>B≧10>C (minute))
CN(C)c1ncc(-c2nc(CC(=O)O)c(-c3ccc(Cl)s3)o2)cn1 [Preparation Example 362] | 1 to 3 | A (A≧20>B≧10>C (minute))
Cc1nc2cc(-c3nc(CC(=O)O)c(-c4ccc(Cl)s4)o3)ccc2s1 [Preparation Example 459] | 1 to 3 | C (A≧20>B≧10>C (minute))
